Results reported in patent US4657897A, “N^6 -substituted adenosines for treating pain” (Warner-Lambert Company, priority 1985, dated 1987).

Target: T1, adenosine A2 receptor (Rattus norvegicus, UniProt P30543)
T1 construct: 5 mg original tissue weight of rat weight of rat striatal membranes; tissue Pel-Freez (Rogers, Ark.) for the brains; host or cells: rat striatum (Sprague-Dawley; Long-Evans gave essentially identical results), membranes
Test: Adenosine Receptor Binding--A2 Receptor Affinity (RBA2), [3H]NECA binding, rat striatal membranes
Design: species or system rat (mixed sex Sprague-Dawley; male Long-Evans)
Details: 4 nM [3H]NECA, 50 nM N6-cyclopentyladenosine, 25° C., 60 min
Experimental: Adenosine Receptor Binding--A2 Receptor Affinity (RBA2)
Brains from 200-500 g mixed sex Sprague-Dawley rats were purchased from Pel-Freez (Rogers, Ark.). […] Brains were thawed and then kept on ice while the striata were dissected out. Striata were disrupted in 10 vol of ice-cold 50 mM Tris.HCl (pH 7.7 at 25° C., pH 8.26 at 5° C.) (Tris) for 30 seconds in a Polytron PT-10 (Brinkmann) at setting 5. The suspension was centrifuged at 50,000 xg for ten minutes, the supernatant discarded, the pellet resuspended in 10 vol ice-cold Tris as above, recentrifuged, resuspended at 1 g/5 ml, and stored in plastic vials at -70° C. […] When needed, tissue was thawed at room temperature, disrupted in a Polytron, and kept on ice until used.
Test compounds were dissolved at 10 mM in dimethylsulfoxide on the same day as the experiment, and diluted in dimethylsulfoxide to 100× the final incubation concentration. […] [^3 H]NECA was diluted to 40 nM in Tris. […] After all additions, the rack of tubes was vortexed, and the tubes were then incubated for 60 min at 25° C. in a shaking water bath. The rack of tubes was vortexed an additional time halfway through the incubation.
Incubations were terminated by filtration through 2.4 cm GF/B filters under reduced pressure. Each tube was filtered as follows: the contents of the tube were poured onto the filter, 4 ml of ice-cold Tris were added to the tube and the contents poured onto the filter, and the filter was washed twice with 4 ml of ice-cold Tris. The filtration was complete in about twelve seconds. Filters were put in scintillation vials, 8 ml of Formula 947 scintillation fluid added, and the vials left overnight, shaken, and counted in a liquid scintillation counter at 40% efficiency.
The IC50 was calculated by weighted nonlinear least squares curve-fitting to the mass-action equation. [formula] where Y is cpm bound
T is cpm total binding without drug
S is cpm specific binding without drug
D is the concentration of drug
K is the IC50 of the drug
Weighting factors were calculated under the assumption that the standard deviation was proportional to the predicted value of Y. Nonspecific binding was treated as a very large (infinite) concentration of drug in the computer analysis.

T1 sequence (P30543 whole entry): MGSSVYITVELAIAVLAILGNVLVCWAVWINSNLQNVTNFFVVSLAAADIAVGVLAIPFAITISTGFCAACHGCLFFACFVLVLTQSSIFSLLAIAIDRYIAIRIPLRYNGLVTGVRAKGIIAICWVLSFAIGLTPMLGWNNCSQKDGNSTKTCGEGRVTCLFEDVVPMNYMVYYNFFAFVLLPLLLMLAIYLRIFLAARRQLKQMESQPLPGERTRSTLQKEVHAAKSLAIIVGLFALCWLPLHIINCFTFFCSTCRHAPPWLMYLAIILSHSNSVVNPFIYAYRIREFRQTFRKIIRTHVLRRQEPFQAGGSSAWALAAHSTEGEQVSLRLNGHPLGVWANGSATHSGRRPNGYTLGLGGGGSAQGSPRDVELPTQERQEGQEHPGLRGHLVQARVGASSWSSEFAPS

OC[C@H]1O[C@@H](n2cnc3c(NCCC(c4ccccc4)c4ccccc4)ncnc32)[C@H](O)[C@@H]1O [Example 2, N^6-(3,3-Diphenylpropyl)adenosine]
IC50: 390 nM
